Experiment: Plasma oxybutynin and N-desethyloxybutynin following oral and intravaginal administration in dogs (14 day study)
Description: A study was conducted to determine the levels of oxybutynin and its active metabolite, N-desethyloxybutynin, present in plasma following oral and intravaginal administration of oxybutynin in dogs.
A 14 day study was conducted, where 8 young adult females were randomly assigned to 4 groups of 2 dogs each.

Compound: CCN(CC)CC#CCOC(=O)C(O)(c1ccccc1)C1CCCCC1 (centres unmarked) [oxybutynin, 4-diethylaminobut-2-ynyl2-cyclohexyl-2-hydroxy-2-phenyl-ethanoate]
- plasma level of oxybutynin at 8 h or more after oral dosing (oral 10 mg/day): ≤ 2.75 ng/mL
- time after dosing at which Cmax of oxybutynin was achieved (plasma): 3 h

Source: patent US20120107385A1, “METHOD OF TREATING CONDITIONS ASSOCIATED WITH OVERACTIVE BLADDER” (priority 2010, published 2012)
